Laboratory results reported in the ASAP Discovery antiviral challenge data (2025).
≈ marks a conversion by molar mass, not a printed value. Where “and” joins values, the source holds several entries; their conditions need not be identical. Identical values can stand only once.

Key:
[1] = human; liver_microsomes
[2] = mdck_mdr1
[3] = not given; remark: listed apart in the source
[4] = mouse; liver_microsomes

SMILES	logD	microsomal CLint [1]	Papp [2]	solubility kinetic [3]	microsomal CLint [4]
O=C(O)c1cc(Cl)c(F)cc1S(=O)(=O)Nc1ccc(Oc2ccccc2Cl)cc1	3.3	67.4 µL/min/mg	4.29 ×10⁻⁶ cm/s	396 µM (≈ 181 µg/mL)	–
O=C(O)c1cc(Cl)ccc1NS(=O)(=O)c1ccc(-c2ccccc2Cl)cc1	3.6	343 µL/min/mg	7.59 ×10⁻⁶ cm/s	397 µM (≈ 168 µg/mL)	–
O=C(O)c1cc(Cl)ccc1S(=O)(=O)NC1CCN(c2nc(C3CC3)cc(C(F)(F)F)n2)CC1	2.8	26.3 µL/min/mg	3.65 ×10⁻⁶ cm/s	380 µM (≈ 192 µg/mL)	–
C=CC[C@H](Nc1cccc(-c2nn[nH]n2)c1)c1cc(Cl)cc(NC(=O)OCc2ccccc2)c1 (racemic)	4.1	65.5 µL/min/mg	1.24 ×10⁻⁶ cm/s	332 µM (≈ 158 µg/mL)	–
CC(C)NC(=O)[C@H](Nc1ccc2c(c1)CNC2)c1cc(Cl)cc2[nH]c(-c3ccccc3)nc12 (racemic)	2.9	23.2 µL/min/mg	0.432 ×10⁻⁶ cm/s	154 µM (≈ 70.8 µg/mL)	–
CC[C@H](Cc1nnn[nH]1)c1ccc(NC(=O)c2cc(Cl)cc(NC(=O)OCc3ccccc3)c2)cc1 (racemic)	4.1	24.9 µL/min/mg	2.79 ×10⁻⁶ cm/s	60 µM (≈ 30.3 µg/mL)	–
CNC(=O)[C@H](Nc1cc(Cl)cc(NC(=O)OCc2ccccc2)c1)c1cccc(-c2nn[nH]n2)c1 (racemic)	2.2	21.3 µL/min/mg	1.39 ×10⁻⁶ cm/s	333 µM (≈ 164 µg/mL)	–
COc1ccc([C@H](Cc2nnn[nH]2)NC(=O)c2ncnc3[nH]ccc23)cc1 (racemic)	-0.1	5 µL/min/mg	1.39 ×10⁻⁶ cm/s	395 µM (≈ 144 µg/mL)	–
Cc1cc(-c2ccc([C@H](NC(=O)OCc3ccccc3)C(=O)Nc3cccc(CN)c3)cc2)cs1 (racemic)	–	29.5 µL/min/mg	1.19 ×10⁻⁶ cm/s	8 µM (≈ 3.88 µg/mL)	–
N#C[C@H](Nc1ccc2c(c1)CNC2)c1cc(Cl)cc2[nH]ncc12 (racemic)	0.9	10.3 µL/min/mg	1.1 ×10⁻⁶ cm/s	297 µM (≈ 96.2 µg/mL)	–
N#C[C@H](Nc1cccc(-c2nn[nH]n2)c1)c1cc(Cl)cc(NC(=O)OCc2ccccc2)c1 (racemic)	3.2	13.6 µL/min/mg	3.23 ×10⁻⁶ cm/s	344 µM (≈ 158 µg/mL)	–
N#C[C@H](Nc1cccc(C(=O)O)c1)c1cc(Cl)cc2[nH]ncc12 (racemic)	0.6	12 µL/min/mg	1.22 ×10⁻⁶ cm/s	112 µM (≈ 36.6 µg/mL)	–
NCc1cccc(NC(=O)C[C@H](NC(=O)OCc2ccccc2)c2ccc(OCc3ccccc3)c(Br)c2)c1 (racemic)	–	12.4 µL/min/mg	0.783 ×10⁻⁶ cm/s	21 µM (≈ 12.4 µg/mL)	–
NCc1cccc([C@H]2C[C@@H]2c2cc(Cl)cc(NC(=O)OCc3ccccc3)c2)c1 (racemic)	–	11.4 µL/min/mg	1.66 ×10⁻⁶ cm/s	50 µM (≈ 20.3 µg/mL)	–
O=C(N[C@H]1[C@H]2CCCCC[C@H]2[C@H]1C(=O)Nc1cccc(C2CCNCC2)c1)OCc1ccccc1 (racemic)	2.8	31.3 µL/min/mg	0.395 ×10⁻⁶ cm/s	49 µM (≈ 23.3 µg/mL)	–
CC(C)NC(=O)[C@H](Nc1ccc2c(c1)CNC2)c1cc(Cl)cc2[nH]c(-c3ccccc3)nc12 (single isomer, unassigned)	2.8	–	0.2 ×10⁻⁶ cm/s	134 µM (≈ 61.6 µg/mL)	11 µL/min/mg
CC(C)[C@H](Nc1ncnc2[nH]c(-c3cnn(CC(=O)N(C)C)c3)cc12)c1ccc2c(c1)OCCO2 (single isomer, unassigned)	2.9 and 3	–	2.05 ×10⁻⁶ cm/s and 1.62 ×10⁻⁶ cm/s	–	35 µL/min/mg and 45 µL/min/mg
CC(C)[C@H](Nc1ncnc2[nH]c(-c3cnn(CC(N)=O)c3)cc12)c1ccc2c(c1)OCCO2 (single isomer, unassigned)	2.9	–	1.09 ×10⁻⁶ cm/s and 1.87 ×10⁻⁶ cm/s	280 µM and 332 µM	16 µL/min/mg and 42 µL/min/mg
CC(C)[C@H](Nc1ncnc2[nH]c(C(=O)N[C@H]3CCN(C)C3)cc12)c1ccc2c(c1)S(=O)(=O)CCC2 (single isomer, unassigned)	1.4 and 1.5	11 µL/min/mg and 26 µL/min/mg	0.175 ×10⁻⁶ cm/s and 0.325 ×10⁻⁶ cm/s	396 µM and 392 µM	–
CC(C)[C@H](Nc1ncnc2[nH]ccc12)c1ccc2c(c1)NC(=O)CO2 (single isomer, unassigned)	1.8 and 2.2	–	3.4 ×10⁻⁶ cm/s and 8.7 ×10⁻⁶ cm/s	371 µM and 374 µM	37 µL/min/mg and 80 µL/min/mg
CC(C)[C@H](Nc1ncnc2[nH]ccc12)c1ccc2c(c1)S(=O)(=O)CCC2 (single isomer, unassigned)	2.7 and 2.5	57 µL/min/mg and 21 µL/min/mg	5.5 ×10⁻⁶ cm/s and 3.55 ×10⁻⁶ cm/s	374 µM and 386 µM	–
CCNC(=O)c1cc2c(N[C@H](c3ccc4c(c3)OCCO4)C(C)C)ncnc2[nH]1 (single isomer, unassigned)	3.6	–	2.7 ×10⁻⁶ cm/s and 2.9 ×10⁻⁶ cm/s	–	48 µL/min/mg and 72 µL/min/mg
CCNC(=O)c1cc2c(N[C@H](c3ccc4c(c3)S(=O)(=O)CCC4)C(C)C)ncnc2[nH]1 (single isomer, unassigned)	2.7 and 2.8	–	0.717 ×10⁻⁶ cm/s and 0.532 ×10⁻⁶ cm/s	337 µM and 316 µM	64 µL/min/mg and 54 µL/min/mg
CNC(=O)c1c[nH]c2ncnc(N[C@H](c3ccc4c(c3)S(=O)(=O)CCC4)C(C)C)c12 (single isomer, unassigned)	2.7 and 2.6	258 µL/min/mg and 108 µL/min/mg	1.61 ×10⁻⁶ cm/s and 0.857 ×10⁻⁶ cm/s	336 µM and 204 µM	–
CNC(=O)c1cc2c(N[C@H](c3ccc4c(c3)S(=O)(=O)CCC4)C(C)C)ncnc2[nH]1 (single isomer, unassigned)	2.3 and 2.4	–	0.891 ×10⁻⁶ cm/s and 0.377 ×10⁻⁶ cm/s	374 µM and 397 µM	47 µL/min/mg and 23 µL/min/mg
CNC(=O)c1cccc(-c2cc3c(N[C@H](c4ccc5c(c4)S(=O)(=O)CCC5)C(C)C)ncnc3[nH]2)c1 (single isomer, unassigned)	3.8 and 3.7	746 µL/min/mg and 455 µL/min/mg	0.502 ×10⁻⁶ cm/s and 0.627 ×10⁻⁶ cm/s	13 µM and 15 µM	–
